In one test the test system is HCMV strain AD169. The test can be described thus: HCMV plaque formation assay in MRC-5 cells. Conditions: for inhibition of HCMV plaque formation as compared to the virus control experiment: 10 micrograms per ml, 7-10 days.
Test [1] concerns Primary Human endothelial cells (HUVEC). The test can be described thus: Endothelial cell migration assay. The settings on record: 10 micrograms per ml, 22 hours.
Experimental: Primary Human endothelial cells (HUVEC) were seeded in insert chambers with 3 micrometer pore size of multi-transwell plate for 6 hours at 37° C. in Endothelial Cell Basal Medium (EBM) supplemented with 0.1% bovine serum albumin. Thereafter, designated concentration of testing peptides—10 micrograms per ml—was added in duplicate wells. The endothelia were allowed to migrate for 22 hours at 37° C., then, migrated cells were fixed and stained with Hoechst 33342 dye. Images of 3 fields per insert were taken and the number of migrated cells per field were quantified using the ImageProPlus software. Data were analyzed for the average number of the migrated cells and standard deviation of six data points for each treatment condition. […] Statistic p values were computed using the Student's t-test.
The test system of another test is IFNγ spleen cells. The test can be described thus: Th1/Th2 cytokine profiling assay: IFNγ. It is filed as cell-based, Balb/c mice. Conditions: 10 micrograms per ml; Ovalbumin restimulation; 72 hours. The source says: (§1) The Balb/c mice (originated in 1923, it is a popular strain and is used in many different research disciplines. Also classified as an inbred from the production of 20 or more successive brother-sister matings, the Balb/c mouse is albino and small in size) were immunized on Days 1, 15, and 29 with Ovalbumin (Ovalbumin is the main protein found in egg white, commonly used to stimulate an immunological reaction in test animals) in PBS (5 micrograms/injection). On day 50, spleens of the mice were harvested (3 weeks after last boost with Ovalbumin). […] Thereafter, additional Ovalbumin was added to the cells at 10 micrograms/ml for in vitro restimulation of the cells. 72 hours later, cell supernatants were harvested and assayed using the Becton Dickinson Mouse Th1/Th2 Cytokine CBA Kit. This kit can be used to measure Interleukin-2 (IL-2), Interleukin-4 (IL-4),
(§2) Interleukin-5 (IL-5), Interferon-γ (IFN-γ), and Tumor Necrosis Factor-α (TNF-α) protein levels in a single sample. The kit performance has been optimized for analysis of physiologically relevant concentrations (pg/ml levels) of specific cytokine proteins in tissue culture supernatants and serum samples.

A further test has as its system IL-4 spleen cells. The test can be described thus: Th1/Th2 cytokine profiling assay: IL-4. In kind it is cell-based, Balb/c mice. Conditions: 10 micrograms per ml; Ovalbumin restimulation; 72 hours.
Text: as §1, §2

The subject of the next test is IL-2 spleen cells. The test can be described thus: Th1/Th2 cytokine profiling assay: IL-2. In kind it is cell-based, Balb/c mice. The settings on record: 10 micrograms per ml; Ovalbumin restimulation; 72 hours.
Text: as §1, §2

A further test concerns TNF-a spleen cells. The test can be described thus: Th1/Th2 cytokine profiling assay: TNF-a. In kind it is cell-based, Balb/c mice. Conditions: 10 micrograms per ml; Ovalbumin restimulation; 72 hours.
Text: as §1, §2

A further test has as its system HUVEC. The test can be described thus: Endothelial tube formation assay. Conditions: 10 micrograms per ml, 20 hours, combination peptide 1:peptide 2 0.95 mole:1.05 mole.
The next test concerns IL-5 spleen cells. The test can be described thus: Th1/Th2 cytokine profiling assay: IL-5. The settings on record: 10 micrograms per ml; Ovalbumin restimulation; 72 hours. In kind it is cell-based, Balb/c mice.
Text: as §1, §2

Test [2] relates to hepatitis B virus (HBV) ayw strain. Description: HBV experimental assay system (HepG2-2.2.15, TaqMan PCR of secreted HBV DNA). In kind it is cell-based. Conditions: 10 micrograms per ml, six days.
For another test, the system named is HIV-1IIIB. The test can be described thus: HIV-1 antiviral assay in CEM-SS cells (MTS readout).

As for `Nc1nc(O)c2ncn(COC(CO)CO)c2n1` [Ganciclovir, reference compound], the “antiviral activity of positive control compound (HCMV)” value in the test with HCMV strain AD169 (positive control) is given as “expected levels of antiviral activity”.

“Gly-Pen-Gly-Arg-Gly-Asp-Ser-Pro-Cys-Ala-OH [peptide 2]”: in test [1], the “inhibition of the migration of human endothelial cells” value stood at 51%. Moreover, the “IFNγ spleen cells; TH1 response (% of control)” value in the test with IFNγ spleen cells was 77.3 % of control. The “IL-4 spleen cells; TH2 response (% of control)” value in the test with IL-4 spleen cells is 117.2 % of control. Further, the “IL-2 spleen cells (% of control)” value in the test on IL-2 spleen cells is recorded as 110.7 % of control. Further, in the test with TNF-a spleen cells, the “TNF-a spleen cells; TH1 response (% of control)” value is on record as 117.6 % of control. In the test with HCMV strain AD169, the “inhibition of HCMV plaque formation as compared to the virus control experiment” value is listed as “did not inhibit”. Further, the “inhibition of the tube formation of endothelial cells” value with HUVEC came to 22%. For the same molecule, the “IL-5 spleen cells; TH2 response (% of control)” value in the test on IL-5 spleen cells is 55.0 % of control. Further, the “inhibition of HBV replication as compared to the virus control infection” value in [2] amounted to 23.9%.

For the molecule “Pyr-Gly-Pro-Trp-Leu-Glu-Glu-Glu-Glu-Glu-Ala-Tyr-Gly-Trp-Met-Asp-Phe-NH2 [peptide 1]”, the “inhibition of the migration of human endothelial cells” value in [1] worked out at 30%. Moreover, the “IFNγ spleen cells; TH1 response (% of control)” value in the test with IFNγ spleen cells was 52.4 % of control. For the same molecule, the “IL-4 spleen cells; TH2 response (% of control)” value with IL-4 spleen cells was 61.5 % of control. Also, in the test on IL-2 spleen cells, the “IL-2 spleen cells (% of control)” value is reported as 101.6 % of control. Further, in the test on TNF-a spleen cells, the “TNF-a spleen cells; TH1 response (% of control)” value is given as 106.3 % of control. For the same molecule, the “inhibition of HCMV plaque formation as compared to the virus control experiment” value with HCMV strain AD169 is on record as “did not inhibit”. Also, in the test on HUVEC, the “inhibition of the tube formation of endothelial cells” value was determined as 35%. Also, the “IL-5 spleen cells; TH2 response (% of control)” value with IL-5 spleen cells is recorded as 61.2 % of control. The “inhibition of HBV replication as compared to the virus control infection” value in [2] is 17.4%.

For the molecule `CC(C)(C)NC(=O)[C@@H]1CN(Cc2cccnc2)CCN1C[C@@H](O)C[C@@H](Cc1ccccc1)C(=O)N[C@H]1c2ccccc2C[C@H]1O` [indinavir], in the test with HIV-1IIIB, the “antiviral activity of positive control compounds (HIV-1)” value is “expected levels of antiviral activity”.

Take `Cc1cn([C@H]2C[C@H](N=[N+]=[N-])[C@@H](CO)O2)c(=O)[nH]c1=O` [AZT]: in the test with HIV-1IIIB, the “antiviral activity of positive control compounds (HIV-1)” value was “expected levels of antiviral activity”.

These data come from patent publication US20100210554A1, “THERAPEUTIC USES OF GASTRIN- 1 AND G- PEN-GRGDSPCA” (priority 2007, published 2010).
